Reference: US9029381B2, “Cyclopropyl amide derivatives” (Astrazeneca AB, priority 2007, dated 2015)

These molecules were tested against human histamine H3 receptors (Homo sapiens (Human), UniProt Q9Y5N1) (assay: Histamine H3 SPA with the agonist radioligand [3H]-N-α-methylhistamine (hH3 binding)). Details: inhibition of [3H]-N-α-methylhistamine (1.4 nM) binding to CHO-K1 membranes expressing full-length human H3 (isoform 445).
human histamine H3 receptors, sequence (Q9Y5N1 whole entry, canonical isoform): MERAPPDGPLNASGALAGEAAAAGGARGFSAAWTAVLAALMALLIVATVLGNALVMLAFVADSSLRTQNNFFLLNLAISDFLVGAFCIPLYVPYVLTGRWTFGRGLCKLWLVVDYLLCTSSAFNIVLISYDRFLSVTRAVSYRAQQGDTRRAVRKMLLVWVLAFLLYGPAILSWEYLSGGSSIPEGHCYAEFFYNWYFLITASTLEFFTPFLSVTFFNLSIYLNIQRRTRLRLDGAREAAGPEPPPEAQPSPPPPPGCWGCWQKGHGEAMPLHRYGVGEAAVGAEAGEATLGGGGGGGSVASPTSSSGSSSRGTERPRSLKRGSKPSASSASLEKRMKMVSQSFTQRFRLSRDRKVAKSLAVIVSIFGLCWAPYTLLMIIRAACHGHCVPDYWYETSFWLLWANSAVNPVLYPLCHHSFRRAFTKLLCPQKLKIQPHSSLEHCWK
Protocol: Histamine H3 SPA with the Agonist Radioligand [^3H]-N-α-Methylhistamine
The H3 binding assay was/can be used to evaluate the ability of at least one compound in accordance with formula I, Ia, Ib, and/or Ic to inhibit [^3H]-N-α-methylhistamine binding to CHO-K1 membranes expressing human histamine H3 receptors (full-length H3, the most prevalent brain isoform 445). In 200 μl 96-well SPA format, human H3 membranes (12.5 μg protein/well) and 1.4 nM [^3H]-N-α-methylhistamine were/can be incubated with at least one compound in accordance with formula I, Ia, Ib, and/or Ic for 1.5 hrs to determine percent effect with respect to total (1% DMSO) and non-specific binding (10 μM imetit). […] Single poke (SP) testing can be done in triplicate.
Membranes, prepared from CHO-K1 cells stably expressing the human histamine H3 receptor, can be obtained from ACS.
Tested formula I, Ia, Ib, and/or Ic compounds were/can be provided as solubilized samples in neat DMSO. Serial dilutions were/can be performed in DMSO.
Plates were/can be 96-well Unifilter GF/B (Perkin Elmer, 6005177). Plates were/can be read on a Perkin Elmer TopCount. CPM data was/can be used to analyze unless DPM data generated by a quench curve was/is required.
• 1. 1 mg/ml BSA was/can be added to assay buffer (AB) on day of assay. • 2. Amounts required for bead/membrane pool in AB were/can be calculated: “P”−need 17.1 ml/assay plate+10 ml PlateMate excess. Buffer volume was/can be split between beads and membranes to allow for polytroning of membranes prior to addition to beads. • a. […] A minimum of 15 minutes was/can be waited prior to adding membranes (See b. below). • b. Membranes (hH3 membranes from CHO cells containing recombinant human H3 receptors, 11.7 mg/ml): membranes were/can be removed from −80° C. and thawed in RT waterbath. (0.0702 mg/ml×P) mg of membranes were/can be resuspended in the remaining volume not used with beads above for 12.5 μg/well final and homogenized briefly at polytron speed 5.0. The homogenized membrane mixture was/can be combined with the beads and a minimum of 30 minutes was/can be waited prior to dispensing to plate. • 3. Formula I, Ia, Ib, and/or Ic compounds: For Single Poke, 2 μl mM of a compound in accordance with formula I, Ia, Ib, and/or Ic was/can be dispensed to Optiplates (triplicate plates) for final a concentration of 10 μM. […] Imetit (see below) was/can be used as a control. • 4. […] [^3H]-N-α-methylhistamine ([^3H]-NAMH): A solution in AB at 14 nM, 10× final concentration of 1.4 nM was/can be prepared. 5 μl samples were/can be calculated in quadruplicate on the 13 counter. If concentration was/is 12-14.5 nM, no adjustment was/is may be required. (For IC50s, use final concentration on calculation tab of ABase template.) Assay • 1. […] 2 μl of the formula I, Ia, Ib, and/or Ic compound dilution was/can be mixed and then transferred into assay plates. DMSO was/can be removed and 2 μl of 100 μM Imetit was/can be added to the wells. • 3. 178 μl bead/membrane mixture was/can be dispensed into the assay plate. • 4. 20 μl [^3H]-NAMH was/can be added with Rapid Plate. The assay plate was/can be sealed and incubated for 1.5 hr on RT shaker at speed ˜6.5. • 5. The assay plate was/can be subsequently centrifuged at 1000 rpm for 10 minutes. • 6. The count was/can be performed on TopCount using one of the 3H SPA H3 Quench programs.
The DPM data was/can be analyzed when tSIS was/is less than that associated with 70% of full scale on the quench curve (tSIS<25%). Otherwise, CPM data was/is used.
The IC50 and nH can be determined by fitting the data to model 205 in XLfit: y=A+((B−A)/(1+((C/x)^D)). Guanosine 5′-O-(3-[^35S]thio)triphosphate [GTPγS] Binding Assay
O=C([C@H]1C[C@@H]1c1ccccc1)N1CCN(C2CCCCC2)CC1 (relative stereo) [Example 2, trans-(4-Cyclohexylpiperazin-1-yl)-(2-phenyl-cyclopropyl)methanone] gave an IC50 of 105 nM. O=C([C@H]1C[C@@H]1c1ccccc1)N1CCN(C2CCCCCC2)CC1 (relative stereo) [Example 3, trans-(4-Cycloheptylpiperazin-1-yl)-(2-phenylcyclopropyl)methanone] was tested, and the IC50 was 4160 nM. Molecule O=C([C@H]1C[C@@H]1c1ccccc1)N1CCN(C2CCC2)CC1 (relative stereo) [Example 4, trans-(4-Cyclobutylpiperazin-1-yl)-(2-phenylcyclopropyl)methanone] has an IC50 of 6.4 nM. For O=C([C@H]1C[C@@H]1c1ccccc1)N1CCN(C2CC2)CC1 (relative stereo) [Example 5, trans-(4-Cyclopropylpiperazin-1-yl)-(2-phenylcyclopropyl)methanone], the IC50 was 44.7 nM. Work on O=C([C@H]1C[C@@H]1c1ccccc1)N1CCN(C2CCCC2)CC1 (relative stereo) [Example 6, trans-(4-Cyclopentylpiperazin-1-yl)-(2-phenylcyclopropyl)methanone] yielded an IC50 of 14 nM. O=C([C@H]1C[C@@H]1c1ccccc1)N1CCCN(C2CCC2)CC1 (relative stereo) [Example 8, trans-(4-Cyclobutyl-1,4-diazepan-1-yl)-(2-phenylcyclopropyl)methanone] gave an IC50 of 7.56 nM. CC(C)(C)N1CCN(C(=O)[C@H]2C[C@@H]2c2ccccc2)CC1 (relative stereo) [Example 9, trans-(4-tert-Butylpiperazin-1-yl)-(2-phenylcyclopropyl)methanone] was tested, and the IC50 was 45.3 nM. O=C([C@H]1C[C@@H]1c1ccc(Br)cc1)N1CCN(C2CCC2)CC1 (relative stereo) [Example 13, trans-[2-(4-Bromophenyl)cyclopropyl]-(4-cyclobutylpiperazin-1-yl)methanone] gave an IC50 of 13.3 nM. CN1CCN(c2ccc([C@H]3C[C@@H]3C(=O)N3CCN(C4CCC4)CC3)cc2)C1=O (relative stereo) [Example 16, trans-1-{4-[2-(4-Cyclobutylpiperazine-1-carbonyl)cyclopropyl]phenyl}-3-methylimidazolidin-2-one] gave an IC50 of 441 nM. Work on CS(=O)(=O)Nc1ccc([C@H]2C[C@@H]2C(=O)N2CCN(C3CCC3)CC2)cc1 (relative stereo) [Example 18, trans-N-{4-[2-(4-Cyclobutylpiperazine-1-carbonyl)cyclopropyl]phenyl}methane-sulfonamide] yielded an IC50 of 62.5 nM. With O=C([C@H]1C[C@@H]1c1ccc(N2CCCC2)cc1)N1CCN(C2CCC2)CC1 (relative stereo) [Example 19, trans-(4-cyclobutylpiperazin-1-yl) {-2-[4-(pyrrolidin-1-yl)phenyl]cyclopropyl}methanone] the IC50 was 351 nM. O=C([C@H]1C[C@@H]1c1ccc(C(F)(F)F)nc1)N1CCN(C2CCC2)CC1 (relative stereo) [Example 26, trans-(4-Cyclobutylpiperazin-1-yl)(2-(6-(trifluoromethyl)pyridin-3-yl)cyclopropyl)methanone] showed an IC50 of 88.3 nM. O=C([C@@H]1C[C@H]1c1ccc(F)cc1)N1CCN(C2CCC2)CC1 (relative stereo) [Example 27, trans-(4-Cyclobutylpiperazin-1-yl)-[2-(4-fluorophenyl)cyclopropyl]methanone] gave an IC50 of 7.3 nM. O=C([C@@H]1C[C@H]1c1cccc(Br)c1)N1CCN(C2CCC2)CC1 (relative stereo) [Example 28, trans-[2-(3-Bromophenyl)cyclopropyl]-(4-cyclobutylpiperazin-1-yl)methanone] was tested, and the IC50 was 1.37 nM. In the case of N#Cc1cccc([C@@H]2C[C@H]2C(=O)N2CCN(C3CCC3)CC2)c1 (relative stereo) [Example 29, trans-3-[2-(4-cyclobutylpiperazine-1-carbonyl)cyclopropyl]benzonitrile], the IC50 is reported as 0.834 nM.
